From BindingDB's records for patent US20250313563 (The Broad Institute, 2025)
“And” between values parts separate entries of the source, which are not always exact repeats. Equal entries are not always repeated.

How the values were obtained:
[1] = molecular target: Glycogen synthase kinase-3 alpha (Homo sapiens, UniProt P49840); assay: TR-FRET Assay
Outline: (§1)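 Signal is measured as TR-FRET between a terbium anti-phospho-Ser641 antibody and streptavidin-d2, added after an EDTA quench. Compounds are preincubated 30 min in assay buffer.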

[2] = molecular target: Glycogen synthase kinase-3 beta (Homo sapiens, UniProt P49841); assay: TR-FRET Assay
Glycogen synthase kinase-3 beta, sequence (P49841 whole entry): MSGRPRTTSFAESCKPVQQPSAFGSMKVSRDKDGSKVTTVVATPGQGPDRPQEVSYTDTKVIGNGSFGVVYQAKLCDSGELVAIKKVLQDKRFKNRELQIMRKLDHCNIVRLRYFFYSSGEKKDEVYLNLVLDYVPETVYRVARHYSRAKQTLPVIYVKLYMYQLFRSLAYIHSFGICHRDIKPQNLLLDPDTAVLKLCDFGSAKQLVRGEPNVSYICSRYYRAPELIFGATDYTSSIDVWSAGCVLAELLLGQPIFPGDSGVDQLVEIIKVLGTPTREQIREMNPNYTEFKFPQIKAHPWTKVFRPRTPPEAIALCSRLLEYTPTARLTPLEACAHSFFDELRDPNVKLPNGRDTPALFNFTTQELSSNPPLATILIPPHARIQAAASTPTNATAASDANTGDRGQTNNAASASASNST
Outline: as §1

Glycogen synthase kinase-3 alpha, sequence (P49840 whole entry): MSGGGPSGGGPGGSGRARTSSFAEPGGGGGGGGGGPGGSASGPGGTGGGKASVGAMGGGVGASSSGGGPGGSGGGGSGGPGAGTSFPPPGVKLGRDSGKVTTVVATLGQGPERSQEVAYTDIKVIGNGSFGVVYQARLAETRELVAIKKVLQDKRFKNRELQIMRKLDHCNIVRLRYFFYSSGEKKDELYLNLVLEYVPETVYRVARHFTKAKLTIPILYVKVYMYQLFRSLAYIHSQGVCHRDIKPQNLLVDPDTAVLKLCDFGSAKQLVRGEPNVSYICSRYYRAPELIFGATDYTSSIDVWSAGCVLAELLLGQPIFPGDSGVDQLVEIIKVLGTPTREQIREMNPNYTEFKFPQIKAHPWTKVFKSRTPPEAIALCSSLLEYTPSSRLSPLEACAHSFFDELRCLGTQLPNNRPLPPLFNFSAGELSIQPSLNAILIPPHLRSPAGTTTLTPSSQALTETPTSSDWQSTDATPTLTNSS

Row | Structure (SMILES) | IC50 [1] | IC50 [2]
1 | CC[C@@]1(c2cccc(-c3cnn(-c4ccncc4)c3)c2)C2=CN=NC2NC2=C1C(=O)NC(C)(C)C2 (stereo partly drawn) [US20250313563, Compound 952912] | 100 to 1000 nM | > 5000 nM
2 | CC[C@@]1(c2cccc(-c3cc(C)ncc3F)c2)C2=C(CC(C)(C)NC2=O)NC2N=NC(C(F)(F)F)=C21 (stereo partly drawn) [US20250313563, Compound 949650] | < 100 nM and 100 to 1000 nM | < 100 nM and 1000 to 5000 nM
3 | CC1(C)CC(=O)C2=C(C1)NC1=C(CN=N1)[C@@]21CCCN(S(=O)(=O)C2CC2)CC1 [US20250313563, Compound 932639] | < 100 nM | 100 to 1000 nM
4 | CC1(C)CC2=C(C(=O)N1)C1(CCN(S(=O)(=O)C3CCCC3)CC1)C1=C(N=NC1)N2 [US20250313563, Compound 943960] | < 100 nM and 100 to 1000 nM | < 100 nM and 100 to 1000 nM
5 | O=C1CC2(CCCC2)CC2=C1C1(CCOCC1)C1=C(N=NC1)N2 [US20250313563, Compound 893308] | < 100 nM | 100 to 1000 nM
6 | COc1cncc(S(=O)(=O)N2CCC3(CC2)C2=C(N=NC2)NC2=C3C(=O)CC(C)(C)C2)c1 [US20250313563, Compound 947465] | < 100 nM | < 100 nM
7 | CCC1(c2cccc(-c3cn(C)nc3C(C)C)c2)C2=C(CC(C)(C)CC2=O)NC2N=NC(C)=C21 (stereo not drawn) [US20250313563, Compound 883998] | < 100 nM | 100 to 1000 nM
8 | CC[C@]1(c2cccc(-c3cnn(C)c3)c2)C2=CN=NC2NC2=C1C(=O)CC(C)(C)[C@@H]2F (stereo partly drawn) [US20250313563, Compound 957504] | 100 to 1000 nM | 1000 to 5000 nM
9 | CC1(C)CC2=C(C(=O)C1F)[C@]1(CC[C@H](C(F)(F)F)CC1)C1=C(N=NC1)N2 (stereo partly drawn) [US20250313563, Compound 917133] | < 100 nM | < 100 nM
10 | CC1(C)CC(=O)C2=C(C1)NC1=C(CN=N1)C21CCC2(CC2)CC1 [US20250313563, Compound 893312] | < 100 nM | < 100 nM
11 | CC1(C)CC(=O)C2=C(C1)NC1=C(CN=N1)C21CN(CC(F)(F)F)C1 [US20250313563, Compound 912074] | < 100 nM | 100 to 1000 nM
12 | CC[C@@]1(c2cccc(-c3ccncc3C)c2)C2=CN=NC2NC2=C1C(=O)NC1(CCOCC1)C2 (stereo partly drawn) [US20250313563, Compound 948359] | < 100 nM and 100 to 1000 nM | < 100 nM and 1000 to 5000 nM
13 | CC1(C)CC(=O)C2=C(C1)NC1=C(CN=N1)C21CC(C(F)(F)F)C1 (stereo not drawn) [US20250313563, Compound 874527] | < 100 nM | 100 to 1000 nM
14 | Cc1cc(S(=O)(=O)N2CCC3(CC2)C2=CN=NC2NC2=C3C(=O)CC(C)(C)C2)ccc1Cl (stereo not drawn) [US20250313563, Compound 947475] | < 100 nM | < 100 nM
15 | CCC1(c2cccc(C(F)(F)F)c2)C2=C(CC(C)(C)CC2=O)NC2N=NC(C)=C21 (stereo not drawn) [US20250313563, Compound 801321] | < 100 nM | < 100 nM
16 | CC[C@@]1(c2ccccc2)C2=CN=NC2NC2=C1C(=O)[C@@H](F)C(C)(C)C2 (stereo partly drawn) [US20250313563, Compound 957403] | 100 to 1000 nM | 1000 to 5000 nM
17 | CCC1(c2cccc(-c3ccnc4c3CCCC4)c2)C2=C(N=NC2)NC2=C1C(=O)C(C)(C)C2 (stereo not drawn) [US20250313563, Compound 952752] | < 100 nM | 100 to 1000 nM
18 | CC[C@@]1(c2cccc(-c3cnn(C)c3)c2)C2=CN=NC2NC2=C1C(=O)CC(C)(C)C2 (stereo partly drawn) [US20250313563, Compound 819576] | 100 to 1000 nM | 1000 to 5000 nM
19 | CC(=O)N1CC2(C1)C1=C(N=NC1)NC1=C2C(=O)CC(C)(C)C1 [US20250313563, Compound 893314] | 1000 to 5000 nM | > 5000 nM
20 | CC[C@]1(c2cccc(-c3cn(C)nc3C)c2)C2=CN=NC2NC2=C1C(=O)CC(C)(C)C2 (stereo partly drawn) [US20250313563, Compound 945545] | 1000 to 5000 nM | > 5000 nM

Row | Structure (SMILES) | IC50 [1] | IC50 [2]
21 | CC[C@]1(c2cccc(C(F)(F)F)c2)C2=C(N=NC2)NC2=C1C(=O)N(C)C2(C)C [US20250313563, Compound 918251] | > 5000 nM | > 5000 nM
22 | CC[C@]1(c2cccc(-c3c(F)cncc3OC)c2)C2=C(N=NC2)NC2=C1C(=O)C(C)(C)C2 [US20250313563, Compound 952564] | < 100 nM and 100 to 1000 nM | < 100 nM and 1000 to 5000 nM
23 | CC[C@]1(c2cccc(-c3ccnn3C)c2)C2=CN=NC2NC2=C1C(=O)CC(C)(C)[C@H]2F (stereo partly drawn) [US20250313563, Compound 957507] | < 100 nM | < 100 nM and 1000 to 5000 nM
24 | CC1(C)CC(=O)C2=C(C1)NC1=C(CN=N1)C21CCC(S(C)(=O)=O)CC1 (stereo not drawn) [US20250313563, Compound 913356] | < 100 nM | < 100 nM
25 | C[C@H]1C[C@@]2(CCN1S(C)(=O)=O)C1=CN=NC1NC1=C2C(=O)CC(C)(C)C1 (stereo partly drawn) [US20250313563, Compound 926827] | < 100 nM | < 100 nM
26 | CCC1(c2cccc(-c3cnn4c3CCCC4)c2)C2=C(CC(C)(C)NC2=O)NC2N=NC(C)=C21 (stereo not drawn) [US20250313563, Compound 945993] | < 100 nM | 100 to 1000 nM
27 | CC[C@@]1(c2cccc(-c3c(C)nn(C)c3C)c2)C2=CN=NC2NC2=C1C(=O)NC(C)(C)C2 (stereo partly drawn) [US20250313563, Compound 947408] | < 100 nM and 100 to 1000 nM | < 100 nM and 1000 to 5000 nM
28 | CC1(C)CC(=O)C2=C(C1)NC1=C(CN=N1)[C@]21CCCN(S(=O)(=O)C2CC2)CC1 [US20250313563, Compound 932659] | < 100 nM | 100 to 1000 nM
29 | CC[C@@]1(c2cccc(-c3ccncc3C)c2)C2=CN=NC2NC2=C1C(=O)NC1(CCCC1)C2 (stereo partly drawn) [US20250313563, Compound 948022] | < 100 nM | < 100 nM and 100 to 1000 nM
30 | CC[C@]1(c2cccc(-c3ccnc4c3CCC4)c2)C2=CN=NC2NC2=C1C(=O)CC(C)(C)C2 (stereo partly drawn) [US20250313563, Compound 945619] | 1000 to 5000 nM | > 5000 nM
31 | CC1(C)CC(=O)C2=C(NC3=C(CN=N3)C23CCN(S(=O)(=O)c2ccccc2C(F)F)CC3)[C@H]1F [US20250313563, Compound 951839] | < 100 nM | 100 to 1000 nM
32 | CC[C@@]1(c2cccc(Br)c2)C2=CN=NC2NC2=C1C(=O)C[C@@H](C(F)(F)F)C2 (stereo partly drawn) [US20250313563, Compound 826652] | < 100 nM | 100 to 1000 nM
33 | CC[C@]1(c2ccccc2)C2=CN=NC2NC2=C1C(=O)CC1(CC1)C2 (stereo partly drawn) [US20250313563, Compound 790615] | < 100 nM | 100 to 1000 nM
34 | CCC1(c2cccc(-c3cnn4c3CCCC4)c2)C2=CN=NC2NC2=C1C(=O)CC(C)(C)C2 (stereo not drawn) [US20250313563, Compound 926836] | < 100 nM | 100 to 1000 nM
35 | Cc1cc(S(=O)(=O)N2CCC3(CC2)C2=C(N=NC2)NC2=C3C(=O)CC(C)(C)C2)ccc1OC(C)C [US20250313563, Compound 945678] | < 100 nM | 100 to 1000 nM
36 | CCC1(c2cccc(-c3ncnc(C)c3C)c2)C2=CN=NC2NC2=C1C(=O)CC(C)(C)C2 (stereo not drawn) [US20250313563, Compound 948090] | < 100 nM | 100 to 1000 nM
37 | CCC1(c2cccc(-c3ccnc(C)c3)c2)C2=C(CC(C)(C)NC2=O)NC2N=NC(C)=C21 (stereo not drawn) [US20250313563, Compound 947798] | < 100 nM | 100 to 1000 nM
38 | CCC1(c2cccc(N(C)C(=O)CCc3ccccc3)c2)C2=CN=NC2NC2=C1C(=O)CC(C)(C)C2 (stereo not drawn) [US20250313563, Compound 912066] | < 100 nM | 100 to 1000 nM
39 | CCC1(c2cc(N3CCOCC3)ccc2F)C2=CN=NC2NC2=C1C(=O)CC(C)(C)C2 (stereo not drawn) [US20250313563, Compound 909203] | 100 to 1000 nM | 1000 to 5000 nM
